Test results: patent US20030096237A1, “Determination of the ability of patients to respond to a tumor treatment” (priority 2000, published 2003)

Test system: CNCM I-2545
Assay: oligonucleotide array analysis of IFN-α modulated gene expression
Assay type: cell-based, human
Parameters: key to nAD M94880 mhc class i (hla-a*8001): normalized average difference between perfect and mismatch probeset signals
Procedure: All these cell lines were cultured in RPMI medium supplemented with 10% FCS, glutamine (2 mM), sodium pyruvate (1 mM), non-essential amino acids and HEPES buffer (10 mM) (all from GIBCO Life Sciences, Paisley, UK). When confluent, the cells were passaged by trypsinization.
Cultured melanoma cells were harvested by scraping and total cellular RNA was extracted. 10 μg from each sample were used directly as templates for cDNA synthesis using a commercial kit (Roche Molecular Biochemicals, Rotkreuz, Switzerland). The T7 promoter sequence incorporated into the cDNA synthesis primer allowed template amplification and biotin labeling by in vitro transcription using a commercial kit (Affymetrix, Santa Clara, Calif.). After alkaline heat fragmentation […] was hybridised to the array (Affymetrix, Santa Clara, Calif.) and all subsequent steps were performed following standard procedures as supplied with the arrays. Raw data were collected with a confocal laser scanner (Hewlett Packard, Palo Alto, Calif.) using GeneChip software v3.1 (Affymetrix, Santa Clara, Calif.).
Raw data were normalized based on the total chip signal obtained upon hybridisation of ME15 cell line cDNA. This array was selected because: i) the 5′/3′ intensity ratio of control genes was smaller than 3; ii)>25% of the genes are called “present” by Genechip; iii) the image appearance is homogeneous with low background and no sign of mechanical chip damage.
The normalized average difference (nAD) between the signals of the perfect and of the mismatch probesets for each gene was used as the expression level of a given gene. At least one nAD value in a pairwise comparison of data has to exceed 50 to be included. Based on nAD, change factors related to IFN-α exposure were also calculated. Negative nAD values were set to 20 in order to avoid the calculation of artificially high modifications. In order to exclude artefacts, only genes with robust change factors, greater than 2-fold, were included in the analysis. […] Genes were clustered according to their mode of regulation.
Total cellular RNA was extracted from the sensitive and resistant melanoma cell lines identified above, reverse transcribed and processed for hybridization to an oligonucleotide array (Hu6800FL, PN 900183) containing probe sets derived from 7000 full-length human genes. Expression levels for each gene were calculated as normalized average difference (nAD, see materials and methods).
Patterns of genes expressed in IFN-α sensitive and resistant melanoma cell lines were investigated upon 48 hour culture in the presence of IFN-α. CNCM I-2546 and CNCM I-2545 were studied in detail.
In Table 2 below, CNCM I-2546 and CNCM I-2545 cultured for 48 hours in the absence or in the presence of 100 U/ml IFN-α were used to assay cytokine modulated gene expression as matched with data obtained in fibrosarcoma cells. This analysis yielded six clusters of genes. […] Data are presented as average difference of signal intensity between match and mismatch probesets.
In Table 3 below, CNCM I-2546 and CNCM I-2545 cell lines cultured for 48 hours in the absence or in the presence of 100 U/ml IFN-α were used to identify novel cytokine induced genes whose expression was not found to be modulated in fibrosarcoma cells. Cluster 1 includes genes inducible in the CNCM I-2546 sensitive but not in the CNCM I-2545 resistant cell line. Cluster 2 comprises genes inducible in both lines. Data are presented as average difference of signal intensity between match and mismatch probesets.

[1] = CNCM I-2545 (+) IFN-α 100 U/ml 48 hours, (−) 11
[2] = CNCM I-2545 (+) IFN-α 100 U/ml 48 hours, (−) 106
[3] = CNCM I-2545 (+) IFN-α 100 U/ml 48 hours, (−) 115
[4] = CNCM I-2545 (+) IFN-α 100 U/ml 48 hours, (−) 234
[5] = CNCM I-2545 (+) IFN-α 100 U/ml 48 hours, (−) 238

- nAD U18018 ela enhancer binding protein (ela-f) [1]: 23
- nAD X70848 protein phosphatase 1, catalytic subunit (CNCM I-2545 (+) IFN-α 100 U/ml 48 hours, (−) 24): 226
- nAD L42243 ifnar2 gene (interferon receptor) (CNCM I-2545 (+) IFN-α 100 U/ml 48 hours, (−) 62): −6
- nAD D78132 rheb gene, ras-related gtp binding protein gene (CNCM I-2545 (+) IFN-α 100 U/ml 48 hours, (−) 88): 253
- nAD L40387 thyroid receptor interactor (trip14) (CNCM I-2545 (+) IFN-α 100 U/ml 48 hours, (−) 104): 5
- nAD U50648 interferon-inducible rna-dependent protein kinase (pkr) [2]: 46
- nAD U69126 fuse binding protein 2 (fbp2) (CNCM I-2545 (+) IFN-α 100 U/ml 48 hours, (−) 114): 159
- nAD U70063 human acid ceramidase [3]: 400
- nAD M19650 2′,3′-cyclic nucleotide 3prime-phosphodiesterase (CNCM I-2545 (+) IFN-α 100 U/ml 48 hours, (−) 137): 99
- nAD L37043 casein kinase i epsilon (CNCM I-2545 (+) IFN-α 100 U/ml 48 hours, (−) 218): 221
- nAD Z26491 gene catechol o-methyltransferase [5]: 181
- nAD U91316 acyl-coa thioester hydrolase (CNCM I-2545 (+) IFN-α 100 U/ml 48 hours, (−) 253): 428
- nAD X90846 mixed lineage kinase 2 (CNCM I-2545 (+) IFN-α 100 U/ml 48 hours, (−) 357): 60
- nAD Z47055 farnesyl pyrophosphate synthetase like (CNCM I-2545 (+) IFN-α 100 U/ml 48 hours, (−) 394): 797
- nAD U50327 protein kinase c substrate 80k-h gene (prkcsh) (CNCM I-2545 (+) IFN-α 100 U/ml 48 hours, (−) 401): 236
- nAD U65579 mitochondrial nadh dehydrogenase-ubiquinone (CNCM I-2545 (+) IFN-α 100 U/ml 48 hours, (−) 630): 621
- nAD X95325 dna binding protein a variant (CNCM I-2545 (+) IFN-α 100 U/ml 48 hours, (−) 634): 253
- nAD U47025 fetal brain glycogen phosphorylase b (CNCM I-2545 (+) IFN-α 100 U/ml 48 hours, (−) 672): 465
- nAD D32050 alanyl-trna synthetase (CNCM I-2545 (+) IFN-α 100 U/ml 48 hours, (−) 1458): 761
- nAD L13210 mac-2 binding protein (CNCM I-2545 (+) IFN-α 100 U/ml 48 hours, (−) 2555): 2092
- nAD L35249 vacuolar h + -atpase mr 56,000 subunit (ho57) (CNCM I-2545 (+) IFN-α 100 U/ml 48 hours, (−) −40): 357
Substance: IFN-α
- nAD X15949 interferon regulatory factor-2 (irf-2) (CNCM I-2545 (+) IFN-α 100 U/ml 48 hours, (−) 0): 13
- nAD M92642 alpha-1 type xvi collagen (col16a1) [1]: 115
- nAD M30818 interferon-induced cellular resistance mediator protein (CNCM I-2545 (+) IFN-α 100 U/ml 48 hours, (−) 20): 5
- nAD L07633 interferon-gamma (CNCM I-2545 (+) IFN-α 100 U/ml 48 hours, (−) 22): 275
- nAD D28137 bst-2 (CNCM I-2545 (+) IFN-α 100 U/ml 48 hours, (−) 37): 88
- nAD J03909 gamma-interferon-inducible protein (ip-30) (CNCM I-2545 (+) IFN-α 100 U/ml 48 hours, (−) 42): 142
- nAD J04182 lysosomal membrane glycoprotein-1 (lamp1) (CNCM I-2545 (+) IFN-α 100 U/ml 48 hours, (−) 66): 484
- nAD Z56281 interferon regulatory factor 3 (CNCM I-2545 (+) IFN-α 100 U/ml 48 hours, (−) 93): 31
- nAD U53830 interferon regulatory factor 7a (CNCM I-2545 (+) IFN-α 100 U/ml 48 hours, (−) 103): 5
- nAD J00212 leukocyte interferon (ifn-alpha) [2]: 9
- nAD M60784 ul snrnp-specific protein [3]: 413
- nAD U72882 interferon-induced leucine zipper protein (ifp35) (CNCM I-2545 (+) IFN-α 100 U/ml 48 hours, (−) 125): 27
- nAD X76538 mpv17 (CNCM I-2545 (+) IFN-α 100 U/ml 48 hours, (−) 132): 101
- nAD X57522 ring4 cdna (CNCM I-2545 (+) IFN-α 100 U/ml 48 hours, (−) 143): 49
- nAD M65028 heterogeneous nuclear ribonucleoprotein a/b (CNCM I-2545 (+) IFN-α 100 U/ml 48 hours, (−) 154): 353
- nAD K01900 lymphocyte interferon alpha type 201 (CNCM I-2545 (+) IFN-α 100 U/ml 48 hours, (−) 156): 7
- nAD U78525 human eukaryotic translation initiation factor (eif3) (CNCM I-2545 (+) IFN-α 100 U/ml 48 hours, (−) 165): 372
- nAD M79462 pml-1 (CNCM I-2545 (+) IFN-α 100 U/ml 48 hours, (−) 201): 11
- nAD X04412 plasma gelsolin (CNCM I-2545 (+) IFN-α 100 U/ml 48 hours, (−) 220): 220
- nAD X96401 rox protein (CNCM I-2545 (+) IFN-α 100 U/ml 48 hours, (−) 229): 83
- nAD D50914 EST [4]: 78
- nAD X07730 prostate specific antigen [4]: 85
- nAD U72206 guanine nucleotide regulatory factor (lfp40) [5]: 162
- nAD U51127 interferon regulatory factor 5 (CNCM I-2545 (+) IFN-α 100 U/ml 48 hours, (−) 262): 91
- nAD U52513 rig-g (CNCM I-2545 (+) IFN-α 100 U/ml 48 hours, (−) 289): 10
- nAD M97935 transcription factor isgf-3 (CNCM I-2545 (+) IFN-α 100 U/ml 48 hours, (−) 331): 92
- nAD U01824 glutamate/aspartate transporter (CNCM I-2545 (+) IFN-α 100 U/ml 48 hours, (−) 339): 35
- nAD HG2917 major histocompatibility complex, class i, e (CNCM I-2545 (+) IFN-α 100 U/ml 48 hours, (−) 353): 322
- nAD M31013 nonmuscle myosin heavy chain (nmhc) (CNCM I-2545 (+) IFN-α 100 U/ml 48 hours, (−) 377): 263
- nAD D21235 hhr23a protein (CNCM I-2545 (+) IFN-α 100 U/ml 48 hours, (−) 388): 346
- nAD Y00264 amyloid a4 precursor (CNCM I-2545 (+) IFN-α 100 U/ml 48 hours, (−) 392): 427
- nAD U61263 acetolactate synthase homolog (CNCM I-2545 (+) IFN-α 100 U/ml 48 hours, (−) 410): 301
- nAD M34338 spermidine synthase (CNCM I-2545 (+) IFN-α 100 U/ml 48 hours, (−) 472): 277
- nAD D49824 hla-b null allele (CNCM I-2545 (+) IFN-α 100 U/ml 48 hours, (−) 527): 267
- nAD M94880 mhc class i (hla-a*8001) (CNCM I-2545 (+) IFN-α 100 U/ml 48 hours, (−) 551): 421
- nAD HG1612 macmarcks (CNCM I-2545 (+) IFN-α 100 U/ml 48 hours, (−) 588): 505
- nAD U18009 chromosome 17q21 clone lf113 (CNCM I-2545 (+) IFN-α 100 U/ml 48 hours, (−) 674): 423
- nAD J04444 cytochrome c-1 gene (CNCM I-2545 (+) IFN-α 100 U/ml 48 hours, (−) 886): 2268
- nAD HG658 major histocompatibility complex, class 1 c (CNCM I-2545 (+) IFN-α 100 U/ml 48 hours, (−) 1183): 455
- nAD J00105 beta-2 microglobulin gene (CNCM I-2545 (+) IFN-α 100 U/ml 48 hours, (−) 1668): 2101
- nAD X57351 1-8d gene from interferon-inducible gene family (CNCM I-2545 (+) IFN-α 100 U/ml 48 hours, (−) 2469): 2686
- nAD U65932 extracellular matrix protein 1 (ecm1) (CNCM I-2545 (+) IFN-α 100 U/ml 48 hours, (−) 2498): 1066
- nAD K03515 neuroleukin (CNCM I-2545 (+) IFN-α 100 U/ml 48 hours, (−) 2998): 2552
- nAD M98343 amplaxin (ems1) (CNCM I-2545 (+) IFN-α 100 U/ml 48 hours, (−) −24): 63
- nAD U09579 melanoma differentiation associated (mda-6) (CNCM I-2545 (+) IFN-α 100 U/ml 48 hours, (−) −59): −26
- nAD U41515 dss1 (CNCM I-2545 (+) IFN-α 100 U/ml 48 hours, (−) −62): 123
- nAD S81914 iex-1 = radiation-inducible immediate-early gene (CNCM I-2545 (+) IFN-α 100 U/ml 48 hours, (−) −66): 21
- nAD M13755 interferon-induced 17-kda/15-kda protein (CNCM I-2545 (+) IFN-α 100 U/ml 48 hours, (−) −163): 31
- nAD U22970 16-jun gene, interferon-inducible peptide (6-16) (CNCM I-2545 (+) IFN-α 100 U/ml 48 hours, (−) −190): 24
- nAD J04164 interferon-inducible protein 27-sep (CNCM I-2545 (+) IFN-α 100 U/ml 48 hours, (−) −447): −97
- nAD X67325 p27 (CNCM I-2545 (+) IFN-α 100 U/ml 48 hours, (−) −460): −86
- change factor (CF) D21235 hhr23a protein (CNCM I-2545, IFN-α 100 U/ml 48 hours): −0.12
